# Entries after “also recorded” stand apart in the source; their conditions may differ.
# Assays:
# primary CLL cells = experiment: ADCC chromium release assay, primary CLL targets; assay type: cell-based, human; conditions: 1 μM; E:T 25:1; variable rituximab concentrations
# Protocol: All in vitro experiments were performed in triplicate.
# ADCC assays were performed as follows. Briefly, target cells (Raji or primary CLL) were labeled by incubation at 37° C. with 100 μCi ^51Cr for 4 hours prior to co-culture with NK cells. Cells were washed, enumerated, and then added in triplicate to prepared 96-well plates containing treated NK cells at an effector:target (E:T) ratio of 25:1. […] Cultures were incubated at 37° C. for 4 hours, and then centrifuged. Supernatants were harvested and ^51Cr release was measured by liquid scintillation counting. All experiments were performed in triplicate.
# CYP3A4 = CYP3A4 (Homo sapiens, UniProt P08684); experiment: Loss of parent drug as catalyzed by CYPs; assay type: in vitro ADME; conditions: in vitro
# CYP3A4, sequence (P08684 whole entry): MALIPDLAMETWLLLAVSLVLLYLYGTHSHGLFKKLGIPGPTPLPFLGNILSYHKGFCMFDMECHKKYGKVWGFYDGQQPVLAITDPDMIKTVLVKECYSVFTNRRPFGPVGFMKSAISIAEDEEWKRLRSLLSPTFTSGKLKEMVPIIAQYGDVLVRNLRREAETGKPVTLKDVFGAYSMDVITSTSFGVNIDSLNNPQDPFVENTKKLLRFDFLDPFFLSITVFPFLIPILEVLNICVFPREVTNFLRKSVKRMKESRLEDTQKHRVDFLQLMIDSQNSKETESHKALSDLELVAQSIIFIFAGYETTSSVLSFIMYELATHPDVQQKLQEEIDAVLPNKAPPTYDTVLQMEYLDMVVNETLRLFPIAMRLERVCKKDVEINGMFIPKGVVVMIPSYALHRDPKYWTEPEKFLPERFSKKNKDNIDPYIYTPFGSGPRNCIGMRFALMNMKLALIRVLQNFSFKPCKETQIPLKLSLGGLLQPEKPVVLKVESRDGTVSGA
# Text: (§1) No unique human metabolite was identified. Preliminary evaluations of metabolism in the plasma, bile, and urine of rats, dogs, and monkeys indicated metabolic processes of oxidation, glutathione binding, and hydrolysis.
# BTK = target: T1, BTK (Mus musculus, UniProt P35991); experiment: Molecular probe assay of irreversible BTK occupancy in MDSCs; assay type: in vivo; conditions: tumor bearing PDA mice, 15 mg/kg BID; Day 8 at 4 hours post dose (N=5)
# T1 construct: MDSCs were purified from tumor bearing PDA mice; from tissue; host or cells: granulocytic and monocytic MDSCs from tumor-bearing PDA mice dosed in vivo
# T1 sequence (P35991 whole entry): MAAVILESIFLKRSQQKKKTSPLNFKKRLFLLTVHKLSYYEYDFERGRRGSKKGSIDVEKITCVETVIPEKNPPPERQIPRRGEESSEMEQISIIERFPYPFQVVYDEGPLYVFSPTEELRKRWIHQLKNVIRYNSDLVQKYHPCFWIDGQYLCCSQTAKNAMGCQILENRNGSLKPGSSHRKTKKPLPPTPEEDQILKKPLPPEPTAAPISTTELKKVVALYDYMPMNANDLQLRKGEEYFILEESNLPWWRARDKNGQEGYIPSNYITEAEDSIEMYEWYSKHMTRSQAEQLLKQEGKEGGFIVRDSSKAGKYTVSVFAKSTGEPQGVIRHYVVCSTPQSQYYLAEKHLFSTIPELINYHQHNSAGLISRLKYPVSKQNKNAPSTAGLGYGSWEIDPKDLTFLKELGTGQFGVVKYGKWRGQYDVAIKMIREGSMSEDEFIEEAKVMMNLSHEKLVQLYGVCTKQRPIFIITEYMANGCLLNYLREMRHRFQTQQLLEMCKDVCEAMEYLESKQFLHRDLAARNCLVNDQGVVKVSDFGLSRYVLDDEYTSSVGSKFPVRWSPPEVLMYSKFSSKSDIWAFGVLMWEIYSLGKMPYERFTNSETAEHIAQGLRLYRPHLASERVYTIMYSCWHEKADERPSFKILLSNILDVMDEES
# ID8 ovarian cancer = experiment: ID8 syngeneic orthotropic ovarian cancer murine model; assay type: in vivo, mouse; conditions: 15 mg/kg/BID given orally
# Text: Human ovarian cancer models, including the ID8 syngeneic orthotropic ovarian cancer model and other animal models, are described in Fong and Kakar, J. Ovarian Res. 2009, 2, 12; Greenaway, et al., Gynecol. Oncol. 2008, 108, 385-94; Urzua, et al., Tumour Biol. 2005, 26, 236-44; Janat-Amsbury, et al., Anticancer Res. 2006, 26, 3223-28; Janat-Amsbury, et al., Anticancer Res. 2006, 26, 2785-89. […] The results of the study are shown in FIG. 13, FIG. 14, FIG. 15, FIG. 16, FIG. 17, FIG. 18, FIG. 19, and FIG. 20.
# CXCL12 and CCL2 = experiment: Plasma chemokines in CLL patients; assay type: in vivo, human; conditions: plasma of treated CLL patients
# CYP enzymes = experiment: Nonclinical CYP interaction studies; assay type: in vitro ADME
# Text: as §1
# regulatory T cell (Treg) = experiment: Treg development from enriched CD4+ T cells; assay type: cell-based; conditions: anti-TCRβ plus anti-CD28, skewing cytokines, 4 days
# Protocol: Enriched CD4^+ T cells are plated on 24-well culture dishes that have been precoated 2 hr with 250 μL anti-TCRβ (0.5 μg/mL) plus anti-CD28 (5 μg/mL) at 37° C. in PBS. The cells are then supplemented with media containing BTK inhibitors along with the skewing cytokines as indicated in the following. The Th17 and Treg cultures are grown for 4 days before analysis. The cells are maintained for an additional 3 days with skewing cytokines (Th17; 20 ng/mL IL-6, 0.5 ng/mL TGF-β, 5 μg/mL IL-4, 5 μg/mL IFN-γ and Treg; 0.5 ng/mL TGF-β, 5 μg/mL IL-4, 5 μg/mL IFN-γ) and are supplemented with IL2 as a growth factor.
# NSCLC (KrasLA2) = experiment: KrasLA2 non-small cell lung cancer model; assay type: in vivo, mice; conditions: dosing of 15 mg/kg
# Text: The model is designed to have sporadic expression in single cells of G12D mutant Kras off its own promoter triggered by spontaneous intrachromosomal recombination. Johnson, et al. Nature 2001, 410, 1111-16. While the mutant Kras protein is expressed in a few cells in all tissues, tumor development is seen only in the lung at high penetrance.
# [1] = test system: BCR activation markers CD69 and CD86; experiment: In vivo potency: expression of BCR activation markers after IgM stimulation; conditions: mice gavaged, 3 hours post-dose, BCR stimulated with IgM; versus Formula (10)
# Protocol: Mice were gavaged at increasing drug concentration and sacrificed at one time point (3 hours post-dose). BCR is stimulated with IgM and the expression of activation markers CD69 and CD86 are monitored by flow cytometry to determine EC50 values.
# CD86 and CD69 are cell surface proteins that are BCR activation markers. […] BCR was stimulated with IgM and the expression of activation marker CD69 and CD86 are monitored by flow cytometry to determine EC50 values.
# human platelets = experiment: Laser injury thrombus formation in VWF HA1 mice infused with human platelets; conditions: 0.1 μM, 0.5 μM, or 1 μM
# Protocol: Injury to the vessel wall of arterioles ([…] diameter) was performed using a pulsed nitrogen dye laser (440 nm, Photonic Instruments) applied through a 20× water-immersion Olympus objective (LUMPlanF1, 0.5 numerical aperture (NA)) of a Zeiss Axiotech vario microscope. […] The extent of thrombus formation was assessed for 2 minutes after injury and the area (μm^2) of coverage determined (Image IQ, Andor Technology).
# The BTK inhibitor-treated human platelets were fluorescently labeled and infused continuously through a catheter inserted into the femoral artery.
# [2] = test system: KPC derived mouse pancreatic cancer cells; experiment: Orthotopic pancreatic cancer model; assay type: in vivo; conditions: Formula (2) 15 mg/kg/BID given orally
# Protocol: In this study, KPC derived mouse pancreatic cancer cells (KrasG12D;Trp53R172H;Pdx1-Cre) were injected into the pancreases.
# Single cell suspensions from tumor samples. Mouse tumor tissue was collected and stored in PBS/0.1% soybean trypsin inhibitor prior to enzymatic dissociation. Samples were finely minced with a scissors and mouse tissue was transferred into DMEM containing 1.0 mg/mL collagenase IV (Gibco), 0.1% soybean trypsin inhibitor, and 50 U/ml DNase (Roche) and incubated at 37° C. for 30 min. with constant stirring while human tissue was digested in 2.0 mg/ml collagenase IV, 1.0 mg/ml hyluronidase, 0.1% soybean trypsin inhibitor, and 50 U/ml DNase for 45 minutes. Suspensions were filtered through a 100 micron filter and washed with FACS buffer (PBS/0.5% BSA/2.0 mM EDTA) prior to staining. Two million total cells were stained with antibodies as indicated. Intracellular detection of FoxP3 was achieved following permeabilization with BD Perm Buffer III (BD Biosciences) and eBioscience Fix/Perm respectively. Following surface staining, samples were acquired on a BD Fortessa and analyzed using FlowJo (Treestar) software.
smiles,measurement,setting,value
"CC#CC(=O)N1CCC[C@H]1c1nc(-c2ccc(C(=O)Nc3ccccn3)cc2)c2c(N)nccn12 [Formula (2), (S)-4-(8-amino-3-(1-(but-2-ynoyl)pyrrolidin-2-yl)imidazo[1,5-α]pyrazin-1-yl)-N-(pyridin-2-yl)benzamide]","effect on rituximab-mediated ADCC, primary CLL / autologous tumor cells",primary CLL cells,not inhibited
same,metabolism by CYPs,CYP3A4,metabolized by CYP3A4
same,BTK occupancy in granulocytic and monocytic MDSC compartments,BTK,Complete
same,CD8+ T cells,ID8 ovarian cancer,increase
same,immunosuppressive tumor associated Tregs,ID8 ovarian cancer,significant reduction
same,B regulatory cells (Bregs),ID8 ovarian cancer; tumor-bearing mice,significant reduction
same,immunosuppressive tumor associated lymphocytes,ID8 ovarian cancer; tumor-bearing mice,significant reduction
same,total B cells,ID8 ovarian cancer; tumor-bearing mice,significant reduction
same,ID8 ovarian cancer growth,ID8 ovarian cancer; versus vehicle,impairs
same,CCL2 levels,CXCL12 and CCL2,significant decrease
same,CXCL12 levels,CXCL12 and CCL2,significant decrease
same,drug-drug interaction potential through CYP enzymes,CYP enzymes,very unlikely to cause clinical drug-drug interactions
same,effect on Treg development,regulatory T cell (Treg),no adverse effect
same,immunosuppressive tumor associated MDSCs,NSCLC (KrasLA2),significant reduction
same,immunosuppressive tumor associated TAMs,NSCLC (KrasLA2),significant reduction
same,immunosuppressive tumor associated Tregs,NSCLC (KrasLA2),significant reduction
same,number of tumors,NSCLC (KrasLA2),fewer overall tumors
same,tumor volumes versus vehicle (microCT),NSCLC (KrasLA2),significant decrease
same,in vivo potency at inhibiting expression of activation markers CD69 and CD86,[1],more potent
same,effect on human platelet-mediated thrombus formation,human platelets,does not interfere with thrombus formation; also recorded: no significant effect
same,tumor burden,[2],reduction in tumor burden
